Results published in patent US4888174A, “Insecticidal polymeric compositions” (priority 1988, dated 1989).

Assay: Absorption rate of chlorpyrifos onto LDPE and ethylene/acrylic acid (EAA) pellets
Format: physicochemical
Settings: 85° C.; for Actual Weight % Chlorpyrifos Found in Copolymer EAA: EAA (Primacor 1430) pellets; for % of Chlorpyrifos Absorbed onto Copolymer EAA: EAA pellets, relative to 0.88% maximum; for Actual Weight % Chlorpyrifos Found in LDPE / % of Chlorpyrifos Absorbed onto LDPE: LDPE pellets; for % of Chlorpyrifos Absorbed onto LDPE: relative to 0.90% maximum
Description: A constant temperature oven is set at 85° C. by using a thermowatch controller and an infrared heat lamp. A wide mouth quart jar containing 247.5 g of 749 low density polyethylene (LDPE) or an equivalent amount of Primacor® 1430 pellets is placed into the oven and left overnight. Primacor® is a copolymer of ethylene/acrylic acid (EAA) containing 9 percent (%) by weight acrylic acid. Two and one-half grams of liquid Dursban® insecticide heated to 50° C. are added to each jar to give a calculated concentration of 1 percent chlorpyrifos in the polymer. The Dursban® insecticide contains 99 percent chlorpyrifos and 1 percent inert ingredients. The jar is shaken initially, returned to the oven, and then removed every 5 minutes and reshaken. A first sample of 10 pellets is taken from the jar after 15 minutes. The pellets are placed on an ice water bath for 1 minute, removed with tweezers and placed into a 50 ml beaker. The pellets are rinsed with 5 mls of acetone to remove excess water. The pellets are rinsed with 5 mls of methylene chloride to remove chlorpyrifos coated on the pellet surface. The solvent is decanted after each rinse and the pellets are dried by blowing nitrogen over them for three minutes. The pellets are weighed on an analytical balance, placed into a 2 ounce bottle and the chlorpyrifos absorbed by the pellets is extracted by shaking the pellets with 20 mls of chloroform on an automatic shaker overnight. The chloroform extract, after appropriate dilution, is measured at 292 nanometers wave length on an ultraviolet (UV) spectrophotometer. The absorbence of the sample extract is compared to a standard curve of absorbence from a known concentration of chlorpyrifos in chloroform. The absorption rate for the Primacor® 1430 pellets is determined in the same manner as the LDPE.

[1] = assumed, based on a time of 180 minutes

With `CCOP(=S)(OCC)Oc1nc(Cl)c(Cl)cc1Cl` [Chlorpyrifos, O,O-diethyl-3,5,6-trichloro-2-pyridyl phosphorothioate] the “Actual Weight % Chlorpyrifos Found in Copolymer EAA” value (0 minutes) was 0.0 Weight %, the “Actual Weight % Chlorpyrifos Found in Copolymer EAA” value (15 minutes) was 0.71 Weight % and the “Actual Weight % Chlorpyrifos Found in Copolymer EAA” value (30 minutes) was 0.80 Weight %. The “Actual Weight % Chlorpyrifos Found in Copolymer EAA” value (45 minutes) was 0.85 Weight %, the “Actual Weight % Chlorpyrifos Found in Copolymer EAA” value (60 minutes) was 0.84 Weight % and the “Actual Weight % Chlorpyrifos Found in Copolymer EAA” value (90 minutes) was 0.83 Weight %. The “Actual Weight % Chlorpyrifos Found in Copolymer EAA” value (120 minutes) was 0.95 Weight %, the “Actual Weight % Chlorpyrifos Found in Copolymer EAA” value (150 minutes) was 0.86 Weight % and the “Actual Weight % Chlorpyrifos Found in Copolymer EAA” value (180 minutes) was 0.88 Weight %. The “% of Chlorpyrifos Absorbed onto Copolymer EAA” value (0 minutes) was 0.0%, the “% of Chlorpyrifos Absorbed onto Copolymer EAA” value (15 minutes) was 80.7% and the “% of Chlorpyrifos Absorbed onto Copolymer EAA” value (30 minutes) was 90.9%. The “% of Chlorpyrifos Absorbed onto Copolymer EAA” value (45 minutes) was 96.6%, the “% of Chlorpyrifos Absorbed onto Copolymer EAA” value (60 minutes) was 95.5% and the “% of Chlorpyrifos Absorbed onto Copolymer EAA” value (90 minutes) was 94.3%. For the same molecule, the “% of Chlorpyrifos Absorbed onto Copolymer EAA” value (120 minutes) was 108.0%, the “% of Chlorpyrifos Absorbed onto Copolymer EAA” value (150 minutes) was 97.7% and the “% of Chlorpyrifos Absorbed onto Copolymer EAA” value (180 minutes) was 100.0%. For the same molecule, the “Actual Weight % Chlorpyrifos Found in LDPE” value (0 minutes) was 0.0 Weight %, the “% of Chlorpyrifos Absorbed onto LDPE” value (0 minutes) was 0.0% and the “Actual Weight % Chlorpyrifos Found in LDPE” value (15 minutes) was 0.64 Weight %. The “% of Chlorpyrifos Absorbed onto LDPE” value (15 minutes) was 71.1%, the “Actual Weight % Chlorpyrifos Found in LDPE” value (30 minutes) was 0.76 Weight % and the “% of Chlorpyrifos Absorbed onto LDPE” value (30 minutes) was 84.4%. The “Actual Weight % Chlorpyrifos Found in LDPE” value (45 minutes) was 0.86 Weight %, the “% of Chlorpyrifos Absorbed onto LDPE” value (45 minutes) was 95.6% and the “Actual Weight % Chlorpyrifos Found in LDPE” value (60 minutes) was 0.91 Weight %. For the same molecule, the “% of Chlorpyrifos Absorbed onto LDPE” value (60 minutes) was 101.1%, the “Actual Weight % Chlorpyrifos Found in LDPE” value (90 minutes) was 0.89 Weight % and the “% of Chlorpyrifos Absorbed onto LDPE” value (90 minutes) was 98.9%. For the same molecule, the “Actual Weight % Chlorpyrifos Found in LDPE” value (120 minutes) was 0.92 Weight %, the “% of Chlorpyrifos Absorbed onto LDPE” value (120 minutes) was 102.2% and the “Actual Weight % Chlorpyrifos Found in LDPE” value (150 minutes) was 1.07 Weight %. The “% of Chlorpyrifos Absorbed onto LDPE” value (150 minutes) was 118.9%, the “Actual Weight % Chlorpyrifos Found in LDPE” value (180 minutes) was 0.90 Weight % and the “% of Chlorpyrifos Absorbed onto LDPE” value (180 minutes) was 100.0%. The “maximum absorption by the Copolymer EAA” value [1] was 0.88 % by weight and the “maximum absorption of chlorpyrifos by the LDPE” value [1] was 0.90 % by weight.
